The text below walks through data of article PMC6213020, “Identification of a Novel PPAR-γ Agonist through a Scaffold Tuning Approach” (International Journal of Molecular Sciences, 2018).

Structures are written as SMILES.

Assay [1] deals with T1, PPAR-δ (Homo sapiens, UniProt Q03181).
T1 construct: purchased Invitrogen / Thermo Fisher Scientific (assay service)
T1 sequence (Q03181 211-439 limits assumed): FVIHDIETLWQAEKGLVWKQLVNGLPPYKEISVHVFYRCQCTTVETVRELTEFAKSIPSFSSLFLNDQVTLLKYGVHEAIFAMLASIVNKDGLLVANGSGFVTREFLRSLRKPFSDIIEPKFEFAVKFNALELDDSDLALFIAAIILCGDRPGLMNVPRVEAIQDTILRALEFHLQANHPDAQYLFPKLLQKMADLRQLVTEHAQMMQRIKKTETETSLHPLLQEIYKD
Briefly: TR-FRET LanthaScreen PPAR coactivator recruit assay, PPAR-δ (C33 peptide). It counts as biochemical. From the text: (§1) Binding of agonist to the PPAR LBD causes a conformational change around helix 12 in the LBD, resulting in higher affinity for the coactivator peptide. When the terbium label on the anti-GST antibody complexed with PPAR is excited at 340 nm, energy is transferred to the fluorescein label on the coactivator peptide and detected as emission at 520 nm. […] Based on the biology of the PPAR-coactivator peptide interaction, this ligand EC50 is a composite value representing the amount of ligand required to bind to receptor, effect a conformational change, and recruit coactivator peptide. Potency of compounds show similar order to their activity (Table 3). […] Ligands such as TZDs show little or no binding to PPAR-δ. Compound 11 and 15 have ortho or meta substituted benzoic acid as an acidic head group. Their acidic head groups might seem to be too large to fit within the narrow PPAR-δ pocket. In contrast, the compound 1 and 2 contains an acetic acid head group that complements the narrow PPAR-δ ligand binding. […] The potency and selectivity of compound 11 could be explained by harmonization of steric effect of acidic head group, length and rigidity of hydrophobic tail, and properly tuned aromatic linker system.
(§2) EC50 of compounds were determined by recruitment of transcriptional coactivators using the TR-FRET based Lanthascreen coactivator assays (Invitrogen, Carlsbad, CA, USA). Which was serviced by Thermo Fisher Scientific (Medicon, WI, USA) according to the LanthaScreen TR-FRET coregulator protocol and assay conditions. Coregulator peptide PGC1a, TRAP220/DRIP2 and C33 was used for the coactivator recruit assay of PPAR-α, -γ, and -δ, respectively.
For orientation: TR-FRET usually uses a lanthanide donor and a delayed reading to cut background.

Assay [2] addresses T2, PPAR-δ (Homo sapiens, UniProt Q03181).
T2 construct: host or cells: HEK293t
T2 sequence (Q03181 1-441): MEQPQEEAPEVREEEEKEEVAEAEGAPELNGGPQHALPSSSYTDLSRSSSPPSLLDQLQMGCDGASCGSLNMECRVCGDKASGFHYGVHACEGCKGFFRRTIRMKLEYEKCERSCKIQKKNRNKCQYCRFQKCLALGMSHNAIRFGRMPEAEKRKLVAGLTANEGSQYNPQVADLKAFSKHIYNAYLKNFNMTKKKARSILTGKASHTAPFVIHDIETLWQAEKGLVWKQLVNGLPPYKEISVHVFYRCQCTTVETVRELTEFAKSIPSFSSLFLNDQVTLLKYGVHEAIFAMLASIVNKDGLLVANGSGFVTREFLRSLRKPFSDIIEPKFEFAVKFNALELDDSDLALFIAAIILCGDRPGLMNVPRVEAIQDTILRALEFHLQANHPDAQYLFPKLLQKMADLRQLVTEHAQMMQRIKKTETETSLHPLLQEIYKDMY
Kind of assay: cell-based PPAR transactivation (luciferase) assay, PPAR-δ. The settings on record: compounds 10 µM; relative to maximum activation with GW0742 (10 μM); PPAR-Luc in HEK293t cells; read-out: % max PPAR-δ. The procedure: (§3) The PPAR activities of the synthesized dichloroanilide-linked indole analogs were assessed using a standard cell-based transactivation assay in CV-1 cells. GW7647 [42], pioglitazone, and GW0742 [43] were used as positive controls for PPAR-α, -γ, and -δ, respectively. These three positive controls presented the maximum activation for each PPAR subtype. The activity of the compounds was presented as the activation percentage (%) relative to the maximum values of the positive controls at the indicated concentrations.
(§4) Transient transfection and luciferase assay was carried out. CV-1 cells were seeded in 48-well plates at a density of 1.5 × 10^5 cells/well in Dulbecco’s modified Eagle’s medium (DMEM) with containing 10% fetal bovine serum (FBS). The cells were transiently transfected with plasmid mixtures containing PPAR-α/γ expression vector and tk-PPRE-luciferase (Luc) vector for 6 h and then treated with the samples for 24 h. HEK293t cells were seeded in a 60-mm dish at a density of 1.5 × 10^6 cells/dish. After transfection with the plasmid mixtures containing PPAR-δ expression vector and Luc vector for 6 h, the cells were transferred to a 96-well plate and treated with the samples. To normalize the transfection efficiency, a β-galactosidase plasmid was cotransfected. The luciferase activity in the cell lysates was measured using a luciferase assay system (Promega Corp., Madison, WI, USA), and the β-galactosidase activity was determined by measuring the absorbance at 410 nm using an ELISA plate reader. The data were expressed as the relative luciferase activity divided by the β-galactosidase activity. All constructs were kindly gifted by Dr. Ronald M. Evans at The Salk Institute (La Jolla, CA, USA).

For assay [3], the target named is T3, PPAR-α (Homo sapiens, UniProt Q07869).
T3 construct: host or cells: CV-1
T3 sequence (Q07869 1-468): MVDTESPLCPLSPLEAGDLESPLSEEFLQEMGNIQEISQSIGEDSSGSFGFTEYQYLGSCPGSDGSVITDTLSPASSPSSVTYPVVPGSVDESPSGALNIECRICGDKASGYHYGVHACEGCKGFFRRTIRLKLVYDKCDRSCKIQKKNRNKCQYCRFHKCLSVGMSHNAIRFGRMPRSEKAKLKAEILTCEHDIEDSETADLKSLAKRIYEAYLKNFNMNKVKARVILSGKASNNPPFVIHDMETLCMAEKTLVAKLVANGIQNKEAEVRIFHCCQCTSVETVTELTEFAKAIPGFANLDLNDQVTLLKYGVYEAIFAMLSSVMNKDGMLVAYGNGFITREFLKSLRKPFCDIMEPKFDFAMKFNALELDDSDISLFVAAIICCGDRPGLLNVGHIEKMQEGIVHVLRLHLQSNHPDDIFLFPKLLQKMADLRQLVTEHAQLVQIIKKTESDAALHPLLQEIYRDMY
Kind of assay: cell-based PPAR transactivation (luciferase) assay, PPAR-α. Conditions: 24 h; compounds 10 µM; relative to maximum activation with GW7647 (10 µM); PPAR-Luc in CV-1 cells; read-out: % max PPAR-α. The protocol: as §3, §4

In assay [4] the target is T4, PPAR-α (Homo sapiens, UniProt Q07869).
T4 construct: purchased Invitrogen / Thermo Fisher Scientific (assay service)
T4 sequence (Q07869 239-466 limits assumed): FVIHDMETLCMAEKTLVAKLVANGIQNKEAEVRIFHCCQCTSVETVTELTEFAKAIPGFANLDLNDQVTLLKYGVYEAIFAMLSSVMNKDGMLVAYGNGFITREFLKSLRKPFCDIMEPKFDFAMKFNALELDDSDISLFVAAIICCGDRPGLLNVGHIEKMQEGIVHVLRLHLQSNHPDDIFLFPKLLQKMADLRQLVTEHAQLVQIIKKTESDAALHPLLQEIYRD
Kind of assay: TR-FRET LanthaScreen PPAR coactivator recruit assay, PPAR-α (PGC1a peptide). It counts as biochemical.
Description: as §1, §2

`O=C(COc1ccc2ccn(Cc3ccccc3C(=O)O)c2c1)Nc1ccc(Cl)cc1Cl` [Compound 13, 2-((6-(2-((2,4-Dichlorophenyl)amino)-2-oxoethoxy)-1H-indol-1-yl)methyl)benzoic acid]: the EC50 (as a rule, the concentration at which the effect is half-maximal) is above 100 µM at PPAR-δ [1] and 16.9 µM at PPAR-α [4]. In addition, the values for the activation at 10 µM at PPAR-δ [2] and on PPAR-α [3] were 86.7 ± 0.53% and 51.84 ± 0.25%, respectively.

As to `O=C(COc1ccc2c(c1)c(Cc1ccccc1)cn2Cc1ccccc1C(=O)O)Nc1ccc(Cl)cc1Cl` [Compound 18, 2-((3-Benzyl-5-(2-((2,4-dichlorophenyl)amino)-2-oxoethoxy)-1H-indol-1-yl)methyl)benzoic acid], the EC50 at PPAR-δ [1] was 28.1 µM; on PPAR-α [4] it was above 100 µM. The activation at 10 µM at PPAR-δ [2] amounted to 75.88 ± 0.35%; at PPAR-α [3], 23.79 ± 0.11%.

For the compound `O=C(COc1ccc2c(ccn2Cc2ccccc2C(=O)O)c1)Nc1ccc(Cl)cc1Cl` [Compound 12, 2-((5-(2-((2,4-Dichlorophenyl)amino)-2-oxoethoxy)-1H-indol-1-yl)methyl)benzoic acid], the concentration for a half-maximal effect (EC50) at PPAR-δ [1] was determined as 32.6 µM; at PPAR-α [4], 3.87 µM. Also, the activation at 10 µM at PPAR-δ [2] worked out at 94.86 ± 0.2%; at PPAR-α [3], 105.1 ± 0.41%.

In the case of `O=C(COc1ccc2ccn(Cc3cccc(C(=O)O)c3)c2c1)Nc1ccc(Cl)cc1Cl` [Compound 15, 3-((6-(2-((2,4-Dichlorophenyl)amino)-2-oxoethoxy)-1H-indol-1-yl)methyl)benzoic acid], the EC50 on PPAR-δ [1] and at PPAR-α [4] was above 100 µM throughout. For the same compound, the activation at 10 µM stood at 86.09 ± 0.31% on PPAR-δ [2] and 78.15 ± 0.04% on PPAR-α [3].
